# Measurements published in publication PMC11148772, “Inhibition of protein translational machinery in triple-negative breast cancer as a promising therapeutic strategy” (Cell Reports Medicine, 2024).
# Entries after “also recorded” stand apart in the source; their conditions may differ.
# Columns and labels:
# [1] = target: T1, PDE4D2 (Homo sapiens, UniProt Q08499); assay: Enzyme assay (in vitro pharmacology); assay type: biochemical; settings: 10 μM
# T1 construct: purchased Eurofins Discovery
# Description: (§1) The compound SU056 was tested for its radioligand binding and enzyme and uptake characteristics by Eurofins lab services (Eurofins discovery). The screening was performed at 10 μM of SU056. The binding was calculated as % inhibition of the binding of a radioactively labeled ligand specific to each target. The SU056 enzyme inhibition effect was determined as % inhibition of control enzyme activity.
# [2] = target: T2, COX2 (Homo sapiens, UniProt P35354); assay: Enzyme assay (in vitro pharmacology); assay type: biochemical; settings: 10 μM
# T2 construct: purchased Eurofins Discovery
# Description: as §1
# [3] = target: T3, YB-1 and RPL11 interaction (Homo sapiens, UniProt P67809); assay: Immunoprecipitation of YB-1; assay type: cell-based; settings: MDA-MB-231 and MDA-MB-468, 1 μM
# T3 construct: Immunoprecipitation of YB-1 from protein lysates of SU056-treated MDA-MB-231 and MDA-MB-468 cells using YB-1 antibody; endogenous in cells; host or cells: MDA-MB-231; MDA-MB-468
# Description: MDA-MB-231 and MDA-MB-468 cells with and without SU056 (1 μM) treatment for 6 and 12 h respectively and were lysed using M-PER lysis solution (Thermo Scientific, #78503), supplemented with Halt protease and phosphatase inhibitor cocktail (Thermo Scientific, #78440). Precleaned 300 μg protein lysate was incubated overnight at 4°C with 3 μg YB-1 (Abcam, #ab76149) on nutating rocker. The antibody was pulled down using 20 μL Protein A/G magnetic beads (Thermo scientific #88802). After three washings, beads were resuspended in 2X SDS sample buffer followed by heating at 90°C–100°C for 5 min. Samples were resolved and probed with indicated antibodies as described in immunoblotting assay.
# [4] = system: CA1262-PDX-TNBC and MA2821-PDX-TNBC tumors; assay: Immunoblot of PDX tumor lysates; assay type: in vivo, mouse; settings: daily oral 50 mg/kg for 3 weeks
# Description: MDA-MB-231, MDA-MB-468, and SUM159 cells were grown to 60–70% confluency and treated with DMSO and SU056 (1 μM) for 12 and 24 h. After the specific treatment time was over, total cell lysates were prepared in non-denaturing lysis buffer. For protein lysate from tumors: randomly selected frozen sample; three from vehicle and SU056 treated group were homogenized in non-denaturing lysis buffer at 4°C for 5 min. 10 μg of protein lysate per sample was resolved on 8–16% SDS-PAGE. Membranes were probed with specific primary antibodies followed by detection with HRP-conjugated appropriate secondary antibodies, visualized by enhanced chemiluminescence detection system, and imaged using an iBright imaging system (Thermo Fisher, USA).
# [5] = target: kinases; assay: KINOMEscan multi-kinase profiling; assay type: binding; settings: 10 μM
# Description: The multi-kinase inhibition profile of SU056 was determined via the KINOMEScan screening platform (Eurofins discovery). The screening was performed at 10 μM of SU056. The kinase dendrogram was developed using the TREEspot interaction maps online application (Eurofins Discovery). The results are expressed as residual activity (% Control).
# [6] = system: pharmacology panel (receptors, channels, transporters, enzymes); assay: In vitro radioligand binding and enzyme and uptake assay panel; settings: 10 μM
# Description: as §1
# [7] = Maximum tolerated dose / acute oral toxicity; assay type: in vivo, mouse; settings: for Body Weight, Mean / Toxicity (death/test): ICR (Female) mice
# Description: The acute oral toxicity of SU056 was evaluated by Eurofins lab services (Eurofins discovery). The oral toxicity study was performed in female rats and mice for multiple escalating doses (100 mg/kg, 200 mg/kg, 400 mg/kg). Rats and mice were monitored for their behavioral, neurological and autonomic signs after administration of SU056. The response was recorded as 0; no adverse effect, ±1 mild adverse effect, ±2, moderate adverse effect and ±3 severe adverse effect.
# [8] = system: E0771 cells; assay: MTT cell viability assay; assay type: cell-based; settings: Mus musculus, 48 h
# Description: (§2) MDA-MB-231 (5000 cells per well), MDA-MB-468 (6000 cells per well), SUM159 (3000 cells per well), 4T1 (2000 cells per well), EMT6 (2000 cells per well), E0771 (3000 cells per well), MCF10A (5000 cells per well) and MCF12A (5000 cells per well) cells were seeded in 96-well culture plates. On the next day, cells were treated with either DMSO or indicated concentrations of SU056 for 48 h 3-(4,5-dimethylthiazol-2-yl)-2,5-diphenyltetrazolium bromide (MTT) (0.5 mg/mL) was dissolved in 1x PBS and 50 μL were added to each well and allowed to form formazan crystals (1–2 h) followed by removal of MTT. Formazan crystals were dissolved in DMSO and plates were scanned at 570nm using a Tecan multimode plate reader.
# [9] = system: 4T1 cells; assay: MTT cell viability assay; assay type: cell-based; settings: Mus musculus, 48 h
# Description: as §2
# [10] = system: MDA-MB-231 cells; assay: MTT cell viability assay; assay type: cell-based; settings: Homo sapiens, MDA-MB-231, 48 h
# Description: as §2
# [11] = system: MDA-MB-468 cells; assay: MTT cell viability assay; assay type: cell-based; settings: Homo sapiens, 48 h
# Description: as §2
# [12] = system: SUM159 cells; assay: MTT cell viability assay; assay type: cell-based; settings: Homo sapiens, 48 h
# Description: as §2
# [13] = system: EMT6 cells; assay: MTT cell viability assay; assay type: cell-based; settings: Mus musculus, 48 h
# Description: as §2
compound,measurement,setting,value
"O=C1OCC2=C1C(c1cccc(F)c1)c1cc3c(cc1N2CCO)OCO3 (stereo not shown) [SU056, 9-(3-fluorophenyl)-5-(2-hydroxyethyl)-6,9-dihydro-[1,3]dioxolo[4,5-g]furo[3,4-b]quinolin-8(5H)-one]",enzyme activity,[1],inhibits
same,enzyme activity,[2],inhibits
same,YB-1 and RPL11 interaction,[3],inhibits
same,levels of YB-1 and RPL-11 in tumors,[4],decrease
same,kinase activity inhibition,[5],does not inhibit
same,effect on major pharmacological parameters (binding and enzyme assays),[6],does not affect
same,"Body Weight, Mean","[7]; 100 mg/kg, 0 hr",23.0 gm
same,Toxicity (death/test),"[7]; 100 mg/kg, 15 min",0/3
same,Toxicity (death/test),"[7]; 100 mg/kg, 1 hr",0/3
same,"Body Weight, Mean","[7]; 100 mg/kg, 24 hr",23.0 gm
same,Toxicity (death/test),"[7]; 100 mg/kg, 24 hr",0/3
same,"Body Weight, Mean","[7]; 100 mg/kg, 48 hr",23.3 gm
same,Toxicity (death/test),"[7]; 100 mg/kg, 48 hr",0/3
same,"Body Weight, Mean","[7]; 100 mg/kg, 72 hr",24.3 gm
same,Toxicity (death/test),"[7]; 100 mg/kg, 72 hr",0/3
same,"Body Weight, Mean","[7]; 200 mg/kg, 0 hr",23.7 gm
same,Toxicity (death/test),"[7]; 200 mg/kg, 15 min",0/3
same,Toxicity (death/test),"[7]; 200 mg/kg, 1 hr",0/3
same,"Body Weight, Mean","[7]; 200 mg/kg, 24 hr",24.0 gm
same,Toxicity (death/test),"[7]; 200 mg/kg, 24 hr",0/3
same,"Body Weight, Mean","[7]; 200 mg/kg, 48 hr",24.0 gm
same,Toxicity (death/test),"[7]; 200 mg/kg, 48 hr",0/3
same,"Body Weight, Mean","[7]; 200 mg/kg, 72 hr",24.3 gm
same,Toxicity (death/test),"[7]; 200 mg/kg, 72 hr",0/3
same,"Body Weight, Mean","[7]; 400 mg/kg, 0 hr",22.7 gm
same,Toxicity (death/test),"[7]; 400 mg/kg, 15 min",0/3
same,Toxicity (death/test),"[7]; 400 mg/kg, 1 hr",0/3
same,"Body Weight, Mean","[7]; 400 mg/kg, 24 hr",22.7 gm
same,Toxicity (death/test),"[7]; 400 mg/kg, 24 hr",0/3
same,"Body Weight, Mean","[7]; 400 mg/kg, 48 hr",23.3 gm
same,Toxicity (death/test),"[7]; 400 mg/kg, 48 hr",0/3
same,"Body Weight, Mean","[7]; 400 mg/kg, 72 hr",24.3 gm
same,Toxicity (death/test),"[7]; 400 mg/kg, 72 hr",0/3
same,"behavioral, neurological, and anatomical signs of toxicity and morbidity","[7]; mice, 100, 200, and 400 mg/kg oral gavage, 72 h",not affected; also recorded: no observable changes
same,IC50,[8],1.54 ± 0.14 µM
same,IC50,[9],7.15 ± 1.26 µM
same,IC50,[10],1.27 ± 0.19 µM
same,IC50,[11],1.36 ± 0.27 µM
same,IC50,[12],1.17 ± 0.34 µM
same,IC50,[13],1.5 ± 0.12 µM
